Each block holds one compound with its values, some of them ahead of it. Positions of bridges follow the written chain, without caps; N, C: chain ends. Residues, ends and D or L forms follow the SMILES beside them.
Columns and labels:
[1] = target: T1, IGFBP-3 (Homo sapiens, UniProt P17936); test: binding curves of phage displaying IGF-1 variants on immobilized IGFBP-1 or IGFBP-3
T1 construct: made in house
Text: Phage particles displaying IGF-1 variants in which the aspartate residue at position 12 was mutated to lysine (D12K) or arginine (D12R) were constructed as described in Dubaquié and Lowman, supra. Furthermore, these protein variants were expressed in E. coli and purified as described in Dubaquié and Lowman, supra.
The wild-type IGF-1 phage particles bound to IGFBP-1 or IGFBP-3 generated similar detection signal intensities.

[2] = tested on: porcine articular cartilage explants; test: porcine articular cartilage explants: matrix breakdown; type: cell-based, pig; conditions: 10 nM; for IL-1α-induced matrix breakdown: IL-1α 1 ng/ml
Procedure: (§1) The metacarpophalangeal joint of a six-month old pig was cultured as described above for bovine articular cartilage in Example 8. This explant was cultured in media alone or in media with D12K, D12R, or wild-type IGF-1 (at 10 nM) alone or in the presence of IL-1α at 1 ng/ml, as described above. Human explants were from patients undergoing joint replacement surgery. Articular cartilage was harvested, aliquoted (40-45 mg/tube) and cultured as above. […] Fresh media was added on days 0, 1, 2, and 3. Matrix breakdown was determined by measuring the amount of proteoglycans in the media using the DMMB assay as set forth above. Matrix (proteoglycan) synthesis was determined by measuring ^35S-sulfate uptake as set forth above.

[3] = tested on: porcine articular cartilage explants; test: porcine articular cartilage explants: matrix synthesis; type: cell-based, pig; conditions: 10 nM; for IL-1α-induced inhibition of proteoglycan synthesis: IL-1α 1 ng/ml
Procedure: as §1

[4] = tested on: human articular cartilage explants; test: human articular cartilage explants from diseased joints: matrix synthesis (35S-sulfate uptake); type: cell-based; conditions: for matrix synthesis in diseased human articular cartilage: 40 ng/ml
Procedure: as §1
(§2) Human articular cartilage explants were cultured in media or treated with IGF-1 by itself or in combination with either BP3-40 or BP3-15 at 0.1 mg/ml as set forth above. Matrix breakdown was determined by measuring the release of proteoglycans into media as described above. Matrix synthesis was determined by counting the amount of ^35S-sulfate incorporated into the cartilage tissue as described above.
The same Material and Methods (for human tissue) were used as described above, using articular cartilage explants from human joints removed from patients undergoing joint replacement. These explants were cultured with IGF-1 alone at 40 ng/ml, or IGF-1 with BP1-17, BP3-15, or BP1-16 (0.1 mg/ml), or IGF-1 with buffer (HEPES).

[5] = target: T1, IGFBP-3; test: competitive phage ELISA of IGF-1 mutants, IGFBP-3; type: binding; conditions: phage display, soluble IGFBP-3 competitor
Procedure, shortened: (§3)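 Alanine-scan IGF-1 mutants on phage competed with soluble IGFBP-1 or IGFBP-3 (threefold dilutions over six logs, from 5 μM and 500 nM respectively) for binding to plates coated with 1 μg/ml of the same protein in PBS pH 7.2. Incubation was 1 h at room temperature in 0.5% Tween 20/PBS. Bound phage was detected by anti-phage/HRP ELISA; IC50 is the mean±SD of at least two clones.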

[6] = tested on: IGFBP-1; test: BIACORE kinetics: IGFBP-1 binding to immobilized IGF-1 variants; set-up: species or system human; conditions: from relative KD values
Procedure: (§4) The binding affinities of the IGF variants for IGFBP-1 and IGFBP-3 were determined using a BIACORE™-2000 real time kinetic interaction analysis system (Biacore, Inc., Piscataway, N.J.) to measure association (ka) and dissociation (kd) rates. Carboxymethylated dextran biosensor chips (CM5, BIAcore Inc.) were activated with EDC (N-ethyl-N′-(3-dimethylaminopropyl)-carbodiimide hydrochloride) and NHS(N-hydroxysuccinimide) according to the supplier's instructions. For immobilization, IGF mutants in 20 mM sodium acetate, pH 4.8, were injected onto the biosensor chip at a concentration of 50 μg/ml to yield approximately 450-600 RU's (resonance-responce units) of covalently-coupled protein. Unreacted groups were blocked with an injection of 1 M ethanolamine. Kinetic measurements were carried out by injecting two-fold serial dilutions (starting at 1 μM) of either IGFBP-1 or IGFBP-3 in running buffer (PBS, 0.05% TWEEN 20™, 0.1% ovalbumin, 0.1% sodium azide) at 25 °C using a flow rate of 20 μl/min. Association rates (ka) and dissociation rates (kd) were calculated separately using a 1:1 Langmuir™ association model in the BIACORE™ evaluation software v. 3.0. The equilibrium dissociation constant (KD) was calculated as kd/ka.
(§5) For measurements of IGFBP-1 binding to IGF-1, kinetics experiments were conducted using a single-cysteine IGF-1 variant, Y31C, that was immobilized onto the sensor chip surface via a disulfide linkage (BIACORE™ System Manual Supplement, 5a-1, Pharmacia (1991)).

[7] = target: T1, IGFBP-3; test: BIACORE kinetics: IGFBP-3 binding to immobilized IGF-1 variants; conditions: 25 C
Procedure: as §4

[8] = target: T2, type I IGF receptor (Homo sapiens, UniProt P08069); test: KIRA assay of IGF type I receptor activation; type: cell-based; conditions: about 13 nM or […] variant
T2 construct: monitors the extent of cytoplasmic IGF receptor phosphorylation upon extracellular stimulation by ligand; endogenous in cells; MCF-7 by my knowledge of the cited method
T2 sequence (P08069 31-736 limits assumed): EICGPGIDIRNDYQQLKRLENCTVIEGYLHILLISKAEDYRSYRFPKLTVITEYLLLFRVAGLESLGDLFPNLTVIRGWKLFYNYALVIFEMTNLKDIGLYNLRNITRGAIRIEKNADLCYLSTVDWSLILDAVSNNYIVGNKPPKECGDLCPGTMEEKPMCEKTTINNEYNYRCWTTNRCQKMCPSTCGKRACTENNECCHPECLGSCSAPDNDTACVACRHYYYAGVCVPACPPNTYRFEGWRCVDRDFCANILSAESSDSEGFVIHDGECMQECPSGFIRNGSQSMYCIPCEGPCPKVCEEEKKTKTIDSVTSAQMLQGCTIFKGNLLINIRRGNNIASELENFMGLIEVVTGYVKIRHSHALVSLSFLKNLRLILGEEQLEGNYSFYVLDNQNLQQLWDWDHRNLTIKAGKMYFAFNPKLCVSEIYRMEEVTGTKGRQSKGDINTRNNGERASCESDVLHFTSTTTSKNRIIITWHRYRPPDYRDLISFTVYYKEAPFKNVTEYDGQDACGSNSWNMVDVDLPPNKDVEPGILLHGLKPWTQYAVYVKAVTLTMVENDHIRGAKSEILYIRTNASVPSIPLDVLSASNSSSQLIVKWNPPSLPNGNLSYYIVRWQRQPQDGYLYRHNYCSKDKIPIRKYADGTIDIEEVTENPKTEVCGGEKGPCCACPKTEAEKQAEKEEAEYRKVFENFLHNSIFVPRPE
Text: The Kinase Receptor Activation Assay (KIRA) specifically and quantitatively monitors the extent of cytoplasmic IGF receptor phosphorylation upon extracellular stimulation by ligand (Sadick et al., J. Pharm. Biomed. Analysis, 19 (6): 883-891 (1999)).

[9] = target: T3, IGFBP-1 (Homo sapiens, UniProt P08833); test: competitive phage ELISA of IGF-1 mutants, IGFBP-1; type: binding; set-up: made in house; host or cells: CHO cells; conditions: phage display, soluble IGFBP-1 competitor
T3 sequence (P08833 26-259): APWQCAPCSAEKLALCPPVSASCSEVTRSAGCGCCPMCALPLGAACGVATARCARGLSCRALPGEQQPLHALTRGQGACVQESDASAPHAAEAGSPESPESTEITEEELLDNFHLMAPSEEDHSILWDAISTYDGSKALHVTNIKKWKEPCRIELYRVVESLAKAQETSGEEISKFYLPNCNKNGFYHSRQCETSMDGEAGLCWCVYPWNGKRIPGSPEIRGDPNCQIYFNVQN
Procedure, shortened: as §3

[10] = target: T3, IGFBP-1; test: BIACORE kinetics: IGFBP-1 binding to immobilized IGF-1 variants; set-up: made in house; host or cells: CHO cells; conditions: 25 C
Procedure: as §4, §5

[11] = tested on: human articular cartilage explants; test: human articular cartilage explants: matrix breakdown (proteoglycan release); type: cell-based; conditions: peptide 0.1 mg/ml
Procedure: as §1, §2

[12] = target: T1, IGFBP-3; test: BIACORE competition assay: IGFBP-3 binding to immobilized IGF-1
Procedure: IGF-1 was immobilized on a dextran chip for inhibition assays using a BIACORE™ 2000 surface-plasmon-resonance device (BIAcore, Inc., Piscataway, N.J.) to measure free binding protein. IGF-1 was biotinylated as described above, and injected over a chip to which streptavidin had been coupled (BIAcore, Inc.) to give 400 to 800 RU (response units) of immobilized IGF-1. […] Serial dilutions of peptide were mixed with a constant concentration (40 nM) of IGFBP-3. After incubation for >1 hour at room temperature, an aliquot of 20 μL was injected at a flow rate of 20 μL/min over the IGF-1 chip. Following the injection, a response reading was taken to measure the relative amount of IGFBP-3 bound to the IGF-1.

[13] = target: T1, IGFBP-3; test: radiolabeled IGF-1 plate assay, IGFBP-3 plate; type: binding
Procedure: (§6) As an additional assay of peptide activity, several peptides were tested in an assay using ^125I-labeled IGF-1 to measure inhibition of IGFBP binding, as described above (Assay 3). Serial dilutions of peptide were added to an IGFBP-1 or an IGFBP-3 plate. Thereafter, ^125I-labeled IGF-1 was added and the plates were incubated for 2 hours. The plates were then washed and counted to determine the amount of bound IGF-1.

[14] = target: T3, IGFBP-1; test: radiolabeled IGF-1 plate assay, IGFBP-1 plate; type: binding; set-up: made in house; host or cells: CHO cells
Procedure: as §6

[15] = tested on: IGFBP-1; test: competitive phage ELISA of IGF-1 mutants, IGFBP-1; type: binding, human; conditions: relative IC50 IGFBP-1/relative IC50 IGFBP-3
Procedure, shortened: as §3

T1 sequence (P17936 28-291): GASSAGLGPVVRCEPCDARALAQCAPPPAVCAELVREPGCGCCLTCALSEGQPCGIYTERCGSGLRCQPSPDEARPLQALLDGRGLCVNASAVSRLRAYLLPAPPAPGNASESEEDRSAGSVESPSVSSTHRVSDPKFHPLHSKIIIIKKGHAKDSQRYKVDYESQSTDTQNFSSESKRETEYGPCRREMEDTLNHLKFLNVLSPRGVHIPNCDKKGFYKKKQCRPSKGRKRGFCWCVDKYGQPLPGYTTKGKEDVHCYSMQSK

IC50 [5]: 3.69 ± 0.25 nM
Specificity Relative BP-1 / Relative BP-3 [6]: 4.9
Binding to IGFBP-3 ka [7]: 1.5 ± 0.5 ×10^5 M^−1s^−1
IGF type I receptor activation, single-concentration KIRA [8]: retain biological activity
IC50 [9]: 181 ± 46 nM
Binding to IGFBP-1 ka [10]: 1.5 ± 0.5 ×10^4 M^−1s^−1
Compound: F25A: IGF-1 single alanine mutant

IC50 [12]: 2000 nM
inhibition of 125I-IGF-1 binding to an IGFBP-3 plate [13]: inhibition
Compound: CSCC[C@H](NC(=O)[C@H](CC(N)=O)NC(=O)[C@@H]1CSSC[C@H](NC(=O)[C@@H](NC(=O)[C@H](CCC(=O)O)NC(=O)[C@H](CCC(=O)O)NC(=O)[C@@H](N)CO)C(C)C)C(=O)N[C@@H](Cc2c[nH]c3ccccc23)C(=O)N2CCC[C@H]2C(=O)N[C@@H](C(C)C)C(=O)N[C@@H](C)C(=O)N[C@@H](CCC(=O)O)C(=O)N[C@@H](Cc2c[nH]c3ccccc23)C(=O)N[C@@H](Cc2ccc(O)cc2)C(=O)N[C@@H](CC(C)C)C(=O)N1)C(=O)N[C@@H](Cc1c[nH]c2ccccc12)C(=O)NCC(=O)O [BP3-01-ox] (H-SEEVCWPVAEWYLCNMWG-OH; disulfide 5-14; N-terminus and C-terminus assumed)
inhibition of 125I-IGF-1 binding to an IGFBP-1 coated plate [14]: did not inhibit IGF-1 binding to an IGFBP-1 coated plate

IC50 [5]: 1.32 ± 0.25 nM
Specificity Relative BP-1 / Relative BP-3 [6]: 3.6
Binding to IGFBP-3 ka [7]: 1.1 ± 0.4 ×10^5 M^−1s^−1
IGF type I receptor activation, single-concentration KIRA [8]: retain biological activity
IC50 [9]: 57.8 ± 20.1 nM
Binding to IGFBP-1 ka [10]: 1.9 ± 0.6 ×10^4 M^−1s^−1
Compound: F16A: IGF-1 single alanine mutant
relative specificity [15]: 4.0

The next lines start with the compound.

Compound: D12R: IGF-1 variant, aspartate at position 12 mutated to arginine
phage binding signal intensity, IGFBP-3 versus IGFBP-1 [1]: displayed lower signal intensities when binding to IGFBP-3 compared to IGFBP-1
cartilage matrix breakdown [2]: inhibited cartilage matrix breakdown
IL-1α-induced matrix breakdown [2]: inhibited the catabolic effects
matrix synthesis [3]: increased matrix synthesis
IL-1α-induced inhibition of proteoglycan synthesis [3]: prevented IL-1α-induced inhibition of proteoglycan synthesis
matrix synthesis in diseased human articular cartilage [4]: stimulated matrix synthesis in diseased human articular cartilage

Compound: D12K: IGF-1 variant, aspartate at position 12 mutated to lysine
phage binding signal intensity, IGFBP-3 versus IGFBP-1 [1]: displayed lower signal intensities when binding to IGFBP-3 compared to IGFBP-1
cartilage matrix breakdown [2]: inhibited cartilage matrix breakdown
IL-1α-induced matrix breakdown [2]: inhibited the catabolic effects
matrix synthesis [3]: increased matrix synthesis
IL-1α-induced inhibition of proteoglycan synthesis [3]: prevented IL-1α-induced inhibition of proteoglycan synthesis
matrix synthesis in diseased human articular cartilage [4]: stimulated matrix synthesis in diseased human articular cartilage

Compound: CC(=O)N[C@@H](CO)C(=O)N[C@@H](CCC(=O)O)C(=O)N[C@@H](CCC(=O)O)C(=O)N[C@H](C(=O)N[C@H]1CSSC[C@@H](C(=O)N[C@@H](CC(N)=O)C(N)=O)NC(=O)[C@H](CC(C)C)NC(=O)[C@H](Cc2ccc(O)cc2)NC(=O)[C@H](Cc2c[nH]c3ccccc23)NC(=O)[C@H](CCC(=O)O)NC(=O)[C@H](C)NC(=O)[C@H](C(C)C)NC(=O)[C@@H]2CCCN2C(=O)[C@H](Cc2c[nH]c3ccccc23)NC1=O)C(C)C [BP3-40] (Ac-SEEVCWPVAEWYLCN-NH2; disulfide 5-14)
matrix synthesis, IGF-1 in combination with peptide ([4]; IGF-1 40 ng/ml, peptide 0.1 mg/ml): to stimulate matrix synthesis
matrix breakdown, IGF-1 in combination with peptide [11]: appeared to enhance the ability of IGF-1 to decrease matrix breakdown

Compound: CSCC[C@@H]1NC(=O)[C@H](Cc2c[nH]c3ccccc23)NC(=O)[C@@H]2CCCN2C(=O)CNC(=O)[C@H](CC(=O)O)NC(=O)[C@H](C)NC(=O)[C@@H](NC(=O)[C@@H](NC(=O)CNC(=O)[C@H](CCSC)NC(=O)[C@@H](N)CC(=O)O)C(C)C)CSSC[C@@H](C(=O)N[C@@H](CCC(=O)O)C(=O)N[C@@H](Cc2c[nH]c3ccccc23)C(=O)N[C@H](C(=O)N[C@@H](CCC(=O)O)C(=O)O)[C@@H](C)O)NC(=O)[C@H](C(C)C)NC(=O)[C@H](Cc2ccc(O)cc2)NC1=O [BP3-02-ox] (H-DMGVCADGPWMYVCEWTE-OH; disulfide 5-14; N-terminus and C-terminus assumed)
inhibition of 125I-IGF-1 binding to an IGFBP-3 plate [13]: inhibition
inhibition of 125I-IGF-1 binding to an IGFBP-1 coated plate [14]: did not inhibit IGF-1 binding to an IGFBP-1 coated plate

Reference: US7423017B2, “Method for treating cartilage disorders” (Genentech, Inc., priority 1997, dated 2008)
